Measured values as given in patent US7132458B2, “Oxidized carotenoid fractions and ketoaldehyde useful as cell-differentiation inducers, cytostatic agents, and anti-tumor agents” (Chemaphor Inc., priority 1994, dated 2006).

Legend:
[1] = system: D 341 medulloblastoma (brain); assay: Inhibition of proliferation and apoptosis, flow cytometry; type: cell-based; details: Homo sapiens, D341, 20–100 μM, 24, 48, 72 and 96 hours, read-out: Relative Inhibition of Proliferation
Protocol: (§1) The effect of the ketoaldehyde upon the inhibition of cell proliferation in cultured cancer cells was determined using a conventional, fluorescence-based anti-proliferative assay and a flow cytometry method. The extent of apoptosis was determined for some cell lines as well.
(§2) The effect of different concentrations of the ketoaldehyde upon the proliferation of the SW480 colorectal and MCF-7 breast cancer cell lines as a function of time is provided in FIGS. 12 and 13, respectively. The inhibition of proliferation in individual cell lines is summarized in Table 10, which provides a relative ranking of the ketoaldehyde's IC50 for each cell line.

[2] = system: HCC 1143 breast carcinoma; assay: as above; type: cell-based; details: Homo sapiens, HCC1143, 20–100 μM, 24, 48, 72 and 96 hours, read-out: Relative Inhibition of Proliferation
Protocol: as §1, §2

[3] = system: HL-60 acute promyelocytic leukemia; assay: as above; type: cell-based; details: Homo sapiens, 20–100 μM, 24, 48, 72 and 96 hours, read-out: Relative Inhibition of Proliferation
Protocol: as §1, §2

[4] = system: MCF-7 breast adenocarcinoma; assay: as above; type: cell-based; details: Homo sapiens, MCF7, 20–100 μM, 24, 48, 72 and 96 hours, read-out: Relative Inhibition of Proliferation
Protocol: as §1, §2

[5] = system: NCI-H23 non-small cell lung cancer; assay: as above; type: cell-based; details: Homo sapiens, 20–100 μM, 24, 48, 72 and 96 hours, read-out: Relative Inhibition of Proliferation
Protocol: as §1, §2

[6] = system: SK-Mel malignant melanoma epidermal; assay: as above; type: cell-based; details: Homo sapiens, 20–100 μM, 24, 48, 72 and 96 hours, read-out: Relative Inhibition of Proliferation
Protocol: as §1, §2

[7] = system: SW480 colorectal adenocarcinoma; assay: as above; type: cell-based; details: Homo sapiens, 20–100 μM, 24, 48, 72 and 96 hours, read-out: Relative Inhibition of Proliferation
Protocol: as §1, §2

[8] = system: HCT116 colon cancer; assay: Inhibition of proliferation, fluorescence-based assay; type: cell-based; details: Homo sapiens, HCT-116, 10–175 μM, 72 hours, read-out: Relative Inhibition of Proliferation
Protocol: as §1, §2

[9] = system: HT29 colon cancer; assay: as above; type: cell-based; details: Homo sapiens, HT-29, 10–175 μM, 72 hours, read-out: Relative Inhibition of Proliferation
Protocol: as §1, §2

[10] = system: IMR32 neuroblastoma; assay: as above; type: cell-based; details: Homo sapiens, IMR-32, 10–175 μM, 72 hours, read-out: Relative Inhibition of Proliferation
Protocol: as §1, §2

[11] = system: K562 chronic myelogenous leukemia; assay: as above; type: cell-based; details: Homo sapiens, 10–175 μM, 72 hours, read-out: Relative Inhibition of Proliferation
Protocol: as §1, §2

[12] = system: NB4 acute promyelocytic leukemia; assay: as above; type: cell-based; details: Homo sapiens, 10–175 μM, 72 hours, read-out: Relative Inhibition of Proliferation
Protocol: as §1, §2

[13] = system: SW480 human colorectal tumor; assay: Human xenograft tumor growth, nude mice; type: in vivo, mouse; details: 40 mg/kg body weight three times per week, FIG. 14
Protocol: FIG. 14 is a graph illustrating the inhibition of growth by the ketoaldehyde of a tumor derived from human colorectal cancer cells. Balb/c nude mice were inoculated subcutaneously in the flank with 5.0×10^6 cells of the SW-480 human colorectal adenocarcinoma cell line. There were 7 control animals and 7 animals in the treatment group. The administration schedule was 40 mg/kg of ketoaldehyde in 20% ethanol in saline given by intraperitoneal injection 3 times per week (Monday, Wednesday and Friday).
The ketoaldehyde provides a significant degree of tumor growth control for a period of more than 67 days in a nude mouse xenograft model of human colon cancer (human colon cancer cell line, SW480; see FIG. 14).

[14] = system: LS174T colorectal tumor; assay: Human xenograft tumor growth, SCID mice; type: in vivo, mouse; details: thrice-weekly dosing 40 mg/kg
[15] = system: MCF-7 human breast cancer tumor; assay: Human xenograft tumor growth, nude mice; type: in vivo, mouse; details: 40 mg/kg body weight
Excerpt: […] […] While the MCF-7 cell line appears to be less susceptible to the ketoaldehyde than the SW480 cell line, it should be noted that the MCF-7-derived tumors grow more aggressively than those derived from SW480, which necessitated using 20-fold fewer MCF-7 cells to obtain an initially slower rate of tumor growth.

[16] = system: LNCaP-FGC-10 prostate tumors; assay: Human xenograft tumor growth, nude mice; type: in vivo, mouse
Excerpt: The ketoaldehyde is also active against human LNCaP-FGC-10 prostate tumors grown in nude mice.

[17] = Pilot toxicity study; type: in vivo
Protocol: Significant inhibition of tumor growth has been obtained with doses of only 10–40 mg/kg body weight. Thus, the ketoaldehyde has a therapeutic index (400/(10–40)) of approximately 10 to 40.

[18] = system: Lewis lung carcinoma; assay: Lewis lung carcinoma model, lung metastases; type: in vivo, mouse
Protocol: The well-known Lewis lung carcinoma model was used as follows: cells were injected subcutaneously into the flanks of C57 BL/6 mice, which were assigned into control and treated groups containing ten animals per group. On day 8, the tumor was excised. The ketoaldehyde (200 mg/kg body weight) in 20% aqueous ethanol or drug vehicle (aqueous ethanol) was administered intraperitoneally on days 9, 11, 13, 15 and 19. On day 22, the animals were sacrificed and their lungs were removed. The lungs were weighed and the number of metastases determined by counting the nodules established in each lung.

[19] = system: HCT116; details: from U.S. Ser. No. 08/527,039; cited from earlier work
[20] = system: IMR32; details: from U.S. Ser. No. 08/527,039; cited from earlier work
[21] = system: K562; details: from U.S. Ser. No. 08/527,039; cited from earlier work
[22] = system: NB4; details: from U.S. Ser. No. 08/527,039; cited from earlier work
[23] = system: DA-3 mammary adenocarcinoma; details: over 28 days; from U.S. Ser. No. 08/527,039; cited from earlier work

CC(=O)C=CC=C(C)C=O [the ketoaldehyde, 2-methyl-6-oxo-2,4-heptadienal]
IC50 [1]: ~50 µM | IC50 [2]: > 100 µM | IC50 [3]: ~50 µM | IC50 [4]: ~50 µM | IC50 [5]: ~50 µM | IC50 [6]: ~100 µM | IC50 [7]: ~50 µM | IC50 [8]: ~50 µM | IC50 [9]: ~100 µM | IC50 [10]: ~50 µM | IC50 [11]: > 100 µM | IC50 [12]: ~100 µM | period of significant tumor growth control [13]: more than 67 days | tumor response [14]: responded well | tumor response ([15]; daily dosing): improved response | tumor response ([15]; thrice-weekly dosing): responded | activity against tumors [16]: active | LD100 ([17]; mice, pilot toxicity study): approximately 400 mg/kg body weight | therapeutic index (400/(10–40)) ([17]; mouse, in vivo): 10–40 | toxicity at therapeutically functional doses ([17]; mouse, in vivo): No toxicity | Mean Lung Weight ± SEM ([18]; 200 mg/kg i.p. days 9, 11, 13, 15, 19, day 22, control 0.287 ± 0.013 g, 2-tail t-test 0.004): 0.229 ± 0.012 g | Mean No. Metastases ± SEM ([18]; 200 mg/kg i.p. days 9, 11, 13, 15, 19, day 22, control 28.0 ± 2.4, 2-tail t-test 0.01): 14.4 ± 4.1 | Difference in Mean Lung Weight, control minus treated ([18]; 200 mg/kg i.p., day 22): 0.058 g | Difference in Mean No. Metastases, control minus treated ([18]; 200 mg/kg i.p., day 22): 13.6 | reduction in the number of lung metastases ([18]; treated animals versus control): ~50% | cytostatic effect [19]: cytostatic effect | cytostatic effect [20]: cytostatic effect | cytostatic effect [21]: cytostatic effect | cytostatic effect [22]: cytostatic effect | tumor volume [23]: less than 50 % of the control
